In ChEMBL document CHEMBL5096227, “Discovery of Ervogastat (PF-06865571): A Potent and Selective Inhibitor of Diacylglycerol Acyltransferase 2 for the Treatment of Non-alcoholic Steatohepatitis” (J Med Chem, 2022):

Assays:
[1] = Apparent intrinsic clearance in cryopreserved human hepatocytes measured per million cells at 1 uM incubated for 4 hrs by LC-MS/MS analysis; format: ADME, cell-based, Hepatocyte; conditions: cryopreserved human hepatocytes, read-out: CLH
Cytochrome P450 2B6 = biological target: T1, Cytochrome P450 2B6 (Homo sapiens, UniProt P20813); assay: Reversible inhibition of CYP2B6 in pooled human liver microsomes; format: ADME, Microsome
T1 sequence (P20813 whole entry): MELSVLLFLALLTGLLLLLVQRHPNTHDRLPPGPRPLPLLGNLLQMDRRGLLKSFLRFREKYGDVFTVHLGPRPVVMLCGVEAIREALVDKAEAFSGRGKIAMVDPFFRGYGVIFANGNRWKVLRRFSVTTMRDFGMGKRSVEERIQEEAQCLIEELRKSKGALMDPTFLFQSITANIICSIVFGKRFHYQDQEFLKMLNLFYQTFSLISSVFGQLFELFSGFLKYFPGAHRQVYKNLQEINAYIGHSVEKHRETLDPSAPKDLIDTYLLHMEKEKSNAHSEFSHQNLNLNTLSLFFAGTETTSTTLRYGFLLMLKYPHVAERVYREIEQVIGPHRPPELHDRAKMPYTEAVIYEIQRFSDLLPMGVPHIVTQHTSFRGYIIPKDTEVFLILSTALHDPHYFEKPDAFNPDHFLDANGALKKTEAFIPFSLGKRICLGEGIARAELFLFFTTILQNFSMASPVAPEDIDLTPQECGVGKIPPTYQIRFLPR

[2] = Drug metabolism in cryopreserved human hepatocytes assessed as oxidation of THF ring mediated metabolite formation at 10 uM measured for 240 mins by HPLC-UV-MS analysis; format: ADME, cell-based, Hepatocyte; conditions: 4 h
[3] = Half life in cynomolgus monkey at 5 mg/kg, po; format: ADME, organism-based, Macaca fascicularis; conditions: in vivo
Cytochrome P450 2C19 = Cytochrome P450 2C19 (Homo sapiens, UniProt P33261); assay: Reversible inhibition of CYP2C19 in pooled human liver microsomes using 4-Hydroxymephenytoin as substrate incubated for 20 mins in presence of NADPH by HPLC-MS/MS analysis; format: ADME, Microsome
Chain of Cytochrome P450 2C19 (P33261 whole entry): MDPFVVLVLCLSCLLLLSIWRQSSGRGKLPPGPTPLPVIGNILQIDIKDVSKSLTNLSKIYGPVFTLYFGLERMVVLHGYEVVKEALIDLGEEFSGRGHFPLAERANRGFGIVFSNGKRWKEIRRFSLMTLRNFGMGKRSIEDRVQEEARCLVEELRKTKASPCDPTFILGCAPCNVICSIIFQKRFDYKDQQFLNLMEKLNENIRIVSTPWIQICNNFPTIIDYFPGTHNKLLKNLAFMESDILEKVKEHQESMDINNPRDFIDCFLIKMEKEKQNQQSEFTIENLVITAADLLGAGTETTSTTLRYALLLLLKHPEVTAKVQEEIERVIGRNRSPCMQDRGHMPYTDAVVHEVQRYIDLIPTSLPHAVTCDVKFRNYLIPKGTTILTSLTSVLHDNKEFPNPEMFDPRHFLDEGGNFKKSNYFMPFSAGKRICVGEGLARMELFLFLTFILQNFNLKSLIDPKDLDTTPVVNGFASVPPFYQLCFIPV

[4] = In vivo inhibition of DGAT2 in high fat/high cholesterol diet fed Sprague-Dawley rat model assessed as reduction in hepatic triglyceride level at 90 mg/kg, po administered twice daily for 7 days starting from day 14 post diet and measured 2 hrs post last dose relative to control; format: functional; parameters: scale not given: the % may be the effect or the level left; conditions: time 7 day
Cytochrome P450 2C8 = biological target: T2, Cytochrome P450 2C8 (Homo sapiens, UniProt P10632); assay: Reversible inhibition of CYP2C8 in pooled human liver microsomes using desethylamodiaquine as substrate incubated for 10 mins in presence of NADPH by HPLC-MS/MS analysis; format: ADME, Microsome
T2 sequence (P10632 whole entry): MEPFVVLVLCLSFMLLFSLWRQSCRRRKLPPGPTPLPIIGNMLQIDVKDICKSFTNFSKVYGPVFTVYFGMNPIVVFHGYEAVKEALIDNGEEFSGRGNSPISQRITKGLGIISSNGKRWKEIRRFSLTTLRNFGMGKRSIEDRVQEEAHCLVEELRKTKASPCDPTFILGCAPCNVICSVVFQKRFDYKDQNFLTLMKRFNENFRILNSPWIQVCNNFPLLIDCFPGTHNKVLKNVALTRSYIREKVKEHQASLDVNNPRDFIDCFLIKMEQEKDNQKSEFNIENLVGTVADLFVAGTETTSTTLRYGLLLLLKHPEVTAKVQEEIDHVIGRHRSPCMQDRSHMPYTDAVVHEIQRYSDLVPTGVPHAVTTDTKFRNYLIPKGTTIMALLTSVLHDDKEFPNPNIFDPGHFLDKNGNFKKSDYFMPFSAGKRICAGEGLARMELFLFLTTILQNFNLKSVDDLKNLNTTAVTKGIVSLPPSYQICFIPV

[5] = Drug metabolism in rat hepatocytes assessed as hydrolytic cleavage of amide bond mediated metabolite formation; format: ADME, cell-based, Hepatocyte
Rattus norvegicus = assay: In vivo inhibition of DGAT2 in high fat/high cholesterol diet fed Sprague-Dawley rat model assessed as reduction in hepatic triglyceride level administered orally twice daily for 7 days starting from day 14 post diet and measured 2 hrs post last dose; format: functional, organism-based; conditions: dose 0.3-90 mg/kg, route po, time 7.0 day, DDE = dose-dependent effect
[6] = Half life in human; format: ADME
Cytochrome P450 1A2 = biological target: T3, Cytochrome P450 1A2 (Homo sapiens, UniProt P05177); assay: Reversible inhibition of CYP1A2 in pooled human liver microsomes using […] as substrate incubated for 20 mins in presence of NADPH by HPLC-MS/MS analysis; format: ADME, Microsome
T3 sequence (P05177 whole entry): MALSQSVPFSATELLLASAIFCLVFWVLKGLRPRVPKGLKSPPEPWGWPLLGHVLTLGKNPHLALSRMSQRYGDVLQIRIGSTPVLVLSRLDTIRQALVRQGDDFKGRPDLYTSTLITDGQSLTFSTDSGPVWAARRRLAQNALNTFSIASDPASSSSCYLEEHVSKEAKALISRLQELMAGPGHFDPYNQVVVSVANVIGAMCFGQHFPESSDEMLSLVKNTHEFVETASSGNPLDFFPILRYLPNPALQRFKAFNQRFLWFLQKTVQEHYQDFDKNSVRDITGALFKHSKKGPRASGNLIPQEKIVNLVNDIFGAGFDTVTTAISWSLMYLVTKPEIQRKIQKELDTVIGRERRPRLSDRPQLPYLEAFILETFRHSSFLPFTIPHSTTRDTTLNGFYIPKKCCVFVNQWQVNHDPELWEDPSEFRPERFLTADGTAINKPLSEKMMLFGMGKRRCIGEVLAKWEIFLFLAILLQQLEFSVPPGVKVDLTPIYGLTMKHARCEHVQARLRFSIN

[7] = Genotoxicity in human TK6 cells by micronucleus test; format: toxicity, cell-based
[8] = In vivo inhibition of DGAT2 in sucrose diet fed Sprague-Dawley rat assessed as reduction in triglyceride level at 90 mg/kg, po administered as single dose and measured after 2 hrs relative to control; format: functional; parameters: scale not given: the % may be the effect or the level left
[9] = Drug metabolism in cryopreserved human hepatocytes assessed as O-dearylation mediated oxidative metabolite formation at 10 uM measured for 240 mins by HPLC-UV-MS analysis; format: ADME, cell-based, Hepatocyte; conditions: 4 h
[10] = Drug metabolism in rat hepatocytes assessed as oxidation of THF ring mediated metabolite formation; format: ADME, cell-based, Hepatocyte

**Q.** With CCOc1cccnc1Oc1cncc(-c2ncc(C(=O)N[C@H]3CCOC3)cn2)c1 [PF-06865571] as the molecule, how does the hepatocyte CLint at 1 µM [1] read?
**A.** < 4 µL/min/1e6 cells

**Q.** And the IC50 (Cytochrome P450 2B6)?
**A.** > 100 µM

**Q.** What about the Drug metabolism [2] of the same molecule?
**A.** Metabolite_Detected

**Q.** What about the half-life [3] of the same molecule?
**A.** 4 h

**Q.** And the IC50 (Cytochrome P450 2C19)?
**A.** 57 µM

**Q.** What about the Activity [4] of the same molecule?
**A.** 49%

**Q.** What about the IC50 (Cytochrome P450 2C8) of the same molecule?
**A.** > 100 µM

**Q.** And the Drug metabolism [5]?
**A.** Metabolite_Detected

**Q.** What about the Activity (Rattus norvegicus) of the same molecule?
**A.** Dde

**Q.** And the half-life [6]?
**A.** 5 h

**Q.** What about the IC50 (Cytochrome P450 1A2) of the same molecule?
**A.** > 100 µM

**Q.** What about the Activity [7] of the same molecule?
**A.** Non-Toxic

**Q.** And the Activity [8]?
**A.** 76%

**Q.** What about the Drug metabolism [9] of the same molecule?
**A.** Metabolite_Detected

**Q.** What about the Drug metabolism [10] of the same molecule?
**A.** Metabolite_Detected
